Data published in patent publication US6727287B2, “Toluene sulfonamide-containing anti-tumor composition and method of use thereof” (PTS International, Inc., priority 2001, dated 2004).

Tested on: normal (i.e., non-neoplastic) cells
Test: Exposure of normal (non-neoplastic) cells to para-toluene sulfonamide
Settings: normal (non-neoplastic) cells exposed to the compound

histopathological changes in normal cells: almost no histopathological changes
SMILES: Cc1ccc(S(N)(=O)=O)cc1 [para-toluene sulfonamide]
